# Measurements taken from publication PMC5607459, “Discovery of a Potent Inhibitor Class with High Selectivity toward Clostridial Collagenases” (Journal of the American Chemical Society, 2017).
# Entries after “also recorded” stand apart in the source; their conditions may differ. Where two headings read alike, the source gives them in different places. Non-standard residues stand in square brackets, D forms with d. Residues, ends and D or L forms follow the SMILES beside them. *: point of attachment. Dnp = O=[N+]([O-])c1ccc(*)c([N+](=O)[O-])c1; Mca = COc1ccc2c(CC(=O)*)cc(=O)oc2c1; Dap = NC[C@H](N)C(=O)O
# How the values were obtained:
# [1] = biological target: T1, ColH-PD (Hathewaya histolytica, UniProt Q46085); assay: biochemical
# [2] = biological target: ColT-PD (Clostridium tetani, UniProt Q899Y1); assay: biochemical; design: species or system C. tetani; conditions: for remaining activity at 100 µM: read-out: residual activity of ColT
# [3] = biological target: ColG-CU (Hathewaya histolytica, UniProt Q9X721); assay: biochemical; design: species or system C. histolyticum; conditions: for remaining activity at 100 µM: read-out: residual activity of ColG
# [4] = biological target: ColQ1-CU (Bacillus cereus, UniProt B9J3S4); assay: biochemical; design: species or system Bacillus cereus strain Q1; conditions: for remaining activity at 100 µM: read-out: residual activity of ColQ1
# [5] = biological target: T2, catalytic domain of MMP-2 (Homo sapiens, UniProt P08253); assay: Human MMP inhibition assay, MMP-2; format: biochemical; conditions: 100 μM compound
# T2 construct: The catalytic domains of MMP-1, -2, -3, -7, -8 and -14; purchased AnaSpec (Fremont, CA, USA)
# [6] = test system: MMP-1, -2, -3, -7, -8, and -14; assay: Human MMP inhibition assay, statements on the whole panel; format: biochemical; conditions: for inhibition of the tested MMPs: tested at 100 µM
# [7] = biological target: T1, ColH-PD
# [8] = biological target: T1, ColH-PD; assay: biochemical; format: binding, Clostridium histolyticum
# [9] = physchem; conditions: buffer, pH 7.5
# [10] = test system: LasB; format: biochemical, P. aeruginosa
# [11] = test system: HEP G2 cells; conditions: human
# [12] = 10 mM Hepes pH 7.4 (10% methanol) at 22.5°C, experimental time frame
# [13] = biological target: T1, ColH-PD; remark: listed apart in the source
# [14] = biological target: catalytic domain of MMP-7 (Homo sapiens, UniProt P09237); assay: biochemical
# [15] = test system: HEP G2 cells; assay: Cytotoxicity assay; conditions: 48 h
# [16] = biological target: amine-coupled peptidase domain of ColH (ColH-PD) (Hathewaya histolytica, UniProt Q46085)
# Sequence of amine-coupled peptidase domain of ColH (ColH-PD) (Q46085 331-721 limits assumed): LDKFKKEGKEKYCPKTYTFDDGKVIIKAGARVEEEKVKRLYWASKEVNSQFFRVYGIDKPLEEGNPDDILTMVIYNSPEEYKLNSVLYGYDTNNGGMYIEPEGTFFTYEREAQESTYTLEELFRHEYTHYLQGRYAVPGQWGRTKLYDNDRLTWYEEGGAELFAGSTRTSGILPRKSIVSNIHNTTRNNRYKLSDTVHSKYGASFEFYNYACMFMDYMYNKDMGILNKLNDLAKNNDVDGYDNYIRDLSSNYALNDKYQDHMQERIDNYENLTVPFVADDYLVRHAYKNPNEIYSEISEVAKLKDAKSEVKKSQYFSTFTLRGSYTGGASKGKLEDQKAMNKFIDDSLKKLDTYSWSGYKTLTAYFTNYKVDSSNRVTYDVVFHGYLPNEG
# Sequence of ColQ1-CU (B9J3S4 94-765 limits assumed): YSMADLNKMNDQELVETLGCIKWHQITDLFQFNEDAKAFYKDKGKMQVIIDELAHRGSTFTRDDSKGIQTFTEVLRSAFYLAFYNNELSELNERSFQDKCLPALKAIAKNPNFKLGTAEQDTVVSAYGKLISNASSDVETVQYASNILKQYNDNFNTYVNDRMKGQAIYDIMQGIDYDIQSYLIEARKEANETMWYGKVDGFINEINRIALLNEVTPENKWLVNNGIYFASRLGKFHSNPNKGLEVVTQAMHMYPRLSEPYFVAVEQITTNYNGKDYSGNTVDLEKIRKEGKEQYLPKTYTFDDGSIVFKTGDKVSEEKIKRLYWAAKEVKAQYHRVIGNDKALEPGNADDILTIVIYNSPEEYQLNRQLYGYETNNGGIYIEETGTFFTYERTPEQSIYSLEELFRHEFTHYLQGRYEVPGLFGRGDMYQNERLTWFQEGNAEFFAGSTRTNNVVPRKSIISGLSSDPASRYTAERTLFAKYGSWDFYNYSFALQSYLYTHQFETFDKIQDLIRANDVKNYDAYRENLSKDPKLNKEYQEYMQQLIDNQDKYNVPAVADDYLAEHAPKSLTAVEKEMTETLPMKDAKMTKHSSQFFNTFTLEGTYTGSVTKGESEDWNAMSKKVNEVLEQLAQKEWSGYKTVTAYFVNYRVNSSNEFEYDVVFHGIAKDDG
# T1 sequence (Q46085 331-721 limits assumed): as the sequence (Q46085 331-721 limits assumed) above
# Sequence of ColT-PD (Q899Y1 340-731 limits assumed): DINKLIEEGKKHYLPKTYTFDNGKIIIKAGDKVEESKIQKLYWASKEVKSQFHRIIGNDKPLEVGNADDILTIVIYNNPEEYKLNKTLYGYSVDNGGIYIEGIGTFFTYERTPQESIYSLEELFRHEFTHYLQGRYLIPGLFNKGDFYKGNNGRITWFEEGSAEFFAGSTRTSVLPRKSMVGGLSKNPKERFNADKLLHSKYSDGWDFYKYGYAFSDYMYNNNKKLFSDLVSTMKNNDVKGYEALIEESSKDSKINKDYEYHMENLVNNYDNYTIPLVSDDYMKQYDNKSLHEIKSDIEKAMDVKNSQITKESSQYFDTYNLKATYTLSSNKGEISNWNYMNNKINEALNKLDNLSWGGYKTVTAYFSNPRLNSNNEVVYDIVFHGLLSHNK
# Sequence of ColG-CU (Q9X721 111-786): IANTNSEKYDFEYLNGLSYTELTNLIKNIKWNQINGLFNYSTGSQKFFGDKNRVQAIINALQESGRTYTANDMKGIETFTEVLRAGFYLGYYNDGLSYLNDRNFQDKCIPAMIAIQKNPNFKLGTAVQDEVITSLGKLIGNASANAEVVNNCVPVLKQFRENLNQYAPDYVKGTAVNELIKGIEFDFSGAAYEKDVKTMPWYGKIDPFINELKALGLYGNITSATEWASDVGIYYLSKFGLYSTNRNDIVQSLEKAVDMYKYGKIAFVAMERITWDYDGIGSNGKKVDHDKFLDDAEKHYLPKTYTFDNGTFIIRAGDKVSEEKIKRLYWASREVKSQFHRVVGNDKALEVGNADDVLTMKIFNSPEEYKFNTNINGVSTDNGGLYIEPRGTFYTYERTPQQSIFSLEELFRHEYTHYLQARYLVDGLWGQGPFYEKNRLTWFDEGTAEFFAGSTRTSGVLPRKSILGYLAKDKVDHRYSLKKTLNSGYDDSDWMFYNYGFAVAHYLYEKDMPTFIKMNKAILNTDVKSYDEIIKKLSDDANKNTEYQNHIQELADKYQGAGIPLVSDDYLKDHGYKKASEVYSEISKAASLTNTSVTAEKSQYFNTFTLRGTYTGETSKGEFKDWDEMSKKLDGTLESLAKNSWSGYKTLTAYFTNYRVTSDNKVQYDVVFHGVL
# T2 sequence (P08253 110-465 limits assumed): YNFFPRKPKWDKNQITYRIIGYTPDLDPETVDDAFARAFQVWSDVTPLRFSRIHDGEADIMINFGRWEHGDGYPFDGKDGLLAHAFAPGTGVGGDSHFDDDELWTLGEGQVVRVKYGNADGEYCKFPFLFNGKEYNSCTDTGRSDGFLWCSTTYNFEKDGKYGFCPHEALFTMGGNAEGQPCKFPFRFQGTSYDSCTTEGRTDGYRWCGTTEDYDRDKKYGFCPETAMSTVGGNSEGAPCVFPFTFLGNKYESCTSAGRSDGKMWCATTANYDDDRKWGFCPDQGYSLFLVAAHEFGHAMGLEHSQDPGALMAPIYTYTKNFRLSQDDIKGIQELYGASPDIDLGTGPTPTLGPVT
# Sequence of catalytic domain of MMP-7 (P09237 95-267): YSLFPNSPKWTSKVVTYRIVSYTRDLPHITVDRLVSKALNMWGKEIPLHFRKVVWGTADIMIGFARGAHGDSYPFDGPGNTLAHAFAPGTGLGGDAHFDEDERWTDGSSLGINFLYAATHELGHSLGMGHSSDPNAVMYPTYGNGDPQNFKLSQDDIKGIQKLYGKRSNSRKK
compound,measurement,setting,value
NC(=O)SCC(=O)Nc1ccccc1 [Compound 1],IC50,[1],25000 ± 6000 nM
Cc1ccc(NC(=O)CSC(N)=O)cc1C [Compound 2],IC50,[1],1900 ± 300 nM
same,inhibition at 40 µM,[1]; read-out: inhibition of ColH-PD,82 ± 3%
CC(=O)c1ccc(NC(=O)CSC(N)=O)cc1 [Compound 3],remaining activity at 100 µM,[2],≤ 5%
same,remaining activity at 100 µM,[3],≤ 5%
same,remaining activity at 100 µM,[4],≤ 5%
same,inhibition at 100 µM,[5],25%
same,selectivity for ColH over MMPs,[6],more than 1000 fold
same,inhibition of the tested MMPs,[6],no or negligible inhibition
same,remaining activity at 100 µM,[1]; read-out: residual activity of ColH-PD,< 10%
COC(=O)c1ccc(NC(=O)CSC(N)=O)cc1 [Compound 4],IC50,[1],44 ± 7 nM
COc1ccc(NC(=O)CSC(N)=O)cc1 [Compound 5],IC50,[1],71 ± 9 nM
Cc1ccc(NC(=O)CSC(N)=O)cc1 [Compound 6],decreased IC50 compared to compound 2,[7],16 fold
same,IC50,[1],120 ± 10 nM
NC(=O)SCC(=O)Nc1ccc(Cl)cc1 [Compound 7],remaining activity at 100 µM,[2],≤ 5%
same,remaining activity at 100 µM,[3],≤ 5%
same,remaining activity at 100 µM,[4],≤ 5%
same,selectivity for ColH over MMPs,[6],more than 1000 fold
same,inhibition of the tested MMPs,[6],no or negligible inhibition
same,Kd,[8],309 ± 45 nM
same,N (stoichiometry),[8],0.54 ± 0.05
same,ΔG,[8],–8.9 ± 0.1 kcal mol^–1
same,ΔH,[8],–12.7 ± 1.2 kcal mol^–1
same,–TΔS,[8],3.8 ± 1.3 kcal mol^–1
same,decrease in IC50 compared to meta-chloro-substituted counterpart 9,[7],100 fold
same,half-life,[9],26.8 ± 1.4 min
same,IC50,[1],190 ± 20 nM
CCOc1ccc(NC(=O)CSC(N)=O)cc1 [Compound 8],IC50,[1],190 ± 30 nM
NC(=O)SCC(=O)Nc1cccc(Cl)c1 [Compound 9],IC50,[1],19000 ± 3000 nM
NC(=O)SCC(=O)Nc1cccc(F)c1 [Compound 10],IC50,[1],23000 ± 3000 nM
NC(=O)SCC(=O)Nc1ccccc1Cl [Compound 12],half-life,[9],20.6 ± 0.9 min
same,IC50,[1],31000 ± 7000 nM
CC(=O)c1ccc(NC(=O)CS)cc1 [Compound 13],selectivity against MMPs,[6],similarly high selectivity against MMPs
same,lower activity toward LasB compared to ColH,[10],more than 1000 fold
same,reduction of viability (%),[11],17 ± 12%
O=C(CS)Nc1ccc(Cl)cc1 [Compound 14],selectivity against MMPs,[6],similarly high selectivity against MMPs
same,Kd,[8],360 ± 38 nM
same,N (stoichiometry),[8],0.48 ± 0.03
same,ΔG,[8],–8.8 ± 0.1 kcal mol^–1
same,ΔH,[8],–15.4 ± 0.3 kcal mol^–1
same,–TΔS,[8],6.6 ± 0.4 kcal mol^–1
same,reduction of viability (%),[11],28 ± 12%
same,IC50,[1],210 ± 10 nM
O=C(CS)Nc1ccccc1Cl [Compound 15],IC50,[1],40000 ± 9000 nM
NC(=O)CCC(=O)Nc1ccccc1 [Compound 16],inhibitory activity toward ColH-PD,[7],devoid of any activity; also recorded: no inhibition
CCOc1ccc(NC(=O)CSC(=S)N(CC)CC)cc1 [Compound 17],Inhibition at 100 μM (%),[7],no inhibition
CCN(CC)C(=S)SCC(=O)Nc1ccc(Br)cc1 [Compound 18],Inhibition at 100 μM (%),[7],no inhibition
CCN(CC)C(=S)SCC(=O)Nc1ccc(C(C)C)cc1 [Compound 19],Inhibition at 100 μM (%),[7],no inhibition
CCN(CC)C(=S)SCC(=O)Nc1ccc(F)cc1 [Compound 20],Inhibition at 100 μM (%),[7],no inhibition
CCN(CC)C(=S)SCC(=O)Nc1ccc(C(C)=O)cc1 [Compound 21],hydrolysis to the corresponding free thiol 13,[12],no hydrolysis
same,inhibition at 100 µM,[1]; read-out: Inhibition at 100 μM (%),12 ± 3%
COc1ccc2c(CC(=O)N[C@@H](C)C(=O)NCC(=O)N3CCC[C@H]3C(=O)N3CCC[C@H]3C(=O)NCC(=O)N3CCC[C@H]3C(=O)N[C@@H](CNc3ccc([N+](=O)[O-])cc3[N+](=O)[O-])C(=O)NCC(=O)N[C@@H](CCCNC(=N)N)C(N)=O)cc(=O)oc2c1 [Mca-Ala-Gly-Pro-Pro-Gly-Pro-Dpa-Gly-Arg-NH2] (Mca-AGPPGP[Dap](Dnp)GR-NH2),Km,[13],62 ± 8 µM
"CNC(=O)[C@H](Cc1ccccc1)NC(=O)[C@H](CC(C)C)[C@H](CSc1cccs1)C(=O)NO [batimastat, reference compound]",inhibition of ColT-PD,[2],inhibited
same,inhibition of ColG-CU,[3],inhibited
same,inhibition of ColQ1-CU,[4],inhibited
same,IC50,"[6]; MMP-1, -2, -3, -7, -8, -14, read-out: IC50 values for all of these MMPs",< 10 nM
same,inhibition of ColH-PD,[7],inhibited
same,reduction of viability (%),"[11]; 48 h, 100 μM",13 ± 7%
same,IC50,[14],7 ± 0.2 nM
COc1cccc2c1C(=O)c1c(O)c3c(c(O)c1C2=O)C[C@@](O)(C(=O)CO)C[C@@H]3O[C@H]1C[C@H](N)[C@H](O)[C@H](C)O1 [doxorubicin],reduction of viability (%),[15]; 1 μM,50 ± 5%
CO[C@H]1/C=C/O[C@@]2(C)Oc3c(C)c(O)c4c(O)c(c(/C=N/N5CCN(C)CC5)c(O)c4c3C2=O)NC(=O)/C(C)=C\C=C\[C@H](C)[C@H](O)[C@@H](C)[C@@H](O)[C@@H](C)[C@H](OC(C)=O)[C@@H]1C [rifampicin],reduction of viability (%),[15]; 100 μM,29 ± 5%
N-(3-[2-furyl]acryloyl)-L-leucyl-glycyl-L-prolyl-L-alanine [FALGPA],MW-normalized SPR response,[16],35 μ-refractive index units
isoamylphosphonyl-Gly-Pro-Ala [reference compound],inhibition of ColH-PD,[7]; 40 µM,81 ± 1%
